PubChem BioAssay (NCI)
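A five-concentration, 48-hour dose response in 96-well plates underlies each endpoint, interpolated linearly between surrounding concentrations. The concentration for full growth arrest is given as TGI.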

Experiments:
Assay in all cases: NCI tumour cell line growth inhibition, 48 h
[1] = test system: DMS 273 small cell lung
[2] = test system: LXFL 529 NSCLC
[3] = test system: RXF-631 renal
[4] = test system: SNB-78 CNS
[5] = test system: HOP-18 NSCLC
[6] = test system: HS 578T breast
[7] = test system: MDA-N
[8] = test system: MDA-MB-435
[9] = test system: NCI/ADR-RES ovarian
[10] = test system: P388 leukemia
[11] = test system: P388/ADR leukemia
[12] = test system: SN12K1 renal

| SMILES | TGI [1] [µM] | TGI [2] [µM] | TGI [3] [µM] | TGI [4] [µM] | TGI [5] [µM] | TGI [6] [µM] | TGI [7] [µM] | TGI [8] [µM] | TGI [9] [µM] | TGI [10] [µM] | TGI [11] [µM] | TGI [12] [µM] |
| --- | --- | --- | --- | --- | --- | --- | --- | --- | --- | --- | --- | --- |
| CC(C)(C)OC(=O)NC1CCCC1=O (configuration not stated) | > 100 | > 100 | > 100 | > 100 |  |  |  |  |  |  |  |  |
| O=S1CSSC1 | 25.1 | 32.4 | 29.8 | 62 | > 100 |  |  |  |  |  |  |  |
| CN(C)C(=S)Nc1nnc(Nc2ccccc2)s1 | > 100 | > 100 | > 100 | > 100 | > 100 |  |  |  |  |  |  |  |
| COc1cc(CNc2nc3ccc(C(F)(F)F)cc3nc2-c2ccccc2)cc(OC)c1OC | > 100 | > 100 | > 100 | > 100 |  |  |  |  |  |  |  |  |
| C[C@]12C/C(=C/O)C(=O)C(O)=C1CC[C@@H]1C2CC[C@@]2(C)C1CC[C@@H]2O (some centres not stated) | 51.1 | 31.7 | 48.8 | 47.3 | > 100 |  |  |  |  |  |  |  |
| N#Cc1c(-c2ccco2)cc(-c2ccccc2)[nH]c1=O | > 100 | > 100 | > 100 | > 100 |  |  |  |  |  |  |  |  |
| Cc1cccc(N(CC(=O)O)S(=O)(=O)c2ccccc2)c1 | > 100 | > 100 | > 100 |  | > 100 |  |  |  |  |  |  |  |
| CC(=O)n1c(=O)c2cc3c(=O)n(-c4cccc(C#N)c4)c(=O)c3cc2c1=O | > 100 | > 100 | > 100 | > 100 | > 100 |  |  |  |  |  |  |  |
| O=c1[nH]c2cc([N+](=O)[O-])ccc2nc1/C(=N\Nc1ccccc1)C(O)c1ccc2c(c1)OCO2 (configuration not stated) | > 100 | > 100 | > 100 | > 100 |  |  |  |  |  |  |  |  |
| CC1(O)CCn2c(=O)c3cc4ccccc4cc3c(=O)n2C1O (configuration not stated) | > 100 | > 100 | > 100 |  | > 100 |  |  |  |  |  |  |  |
| CCCCCCC(C)CCCCCCCCCCC(=O)O (configuration not stated) | > 100 | > 100 | > 100 |  | > 100 |  |  |  |  |  |  |  |
| CCOC(OC1=C(C#N)CCCC1)C(CC)[Se]c1ccccc1 (configuration not stated) | 24.9 | 65.9 | 26.2 | 89.7 | 54.1 |  |  |  |  |  |  |  |
| COC(=O)C1C(=O)N(CCc2c[nH]c3ccccc23)C[C@@H]2CCC(=O)C[C@H]12 (some centres not stated) | > 100 | > 100 | > 100 | > 100 |  |  |  |  |  |  |  |  |
| COc1ccc2[nH]c(-c3ccc(O)cc3)cc(=O)c2c1 | 0.717 | > 100 | > 100 | > 100 | > 29.9 | > 100 | > 100 |  |  |  |  |  |
| CCCCCCCCCCCCCCCCCCOCC(COCCOCC[N+]1(CCCCCC(=O)[O-])CCCC1)Oc1ncccn1 (configuration not stated) | 2.26 |  |  | 4.52 | 13.7 | 28.8 | 23.2 | 25 | 24.1 | 1.02 | 15.9 | 17.7 |
| Cc1ccc(C)c(N2C(=O)C(=O)C(c3nc4ccccc4s3)C(=Nc3cccc4c(=O)[nH][nH]c(=O)c34)C2=O)c1 (configuration not stated) | > 100 | > 100 | > 100 |  | > 100 |  |  |  |  |  |  |  |
| COc1cc(C2c3cc4c(cc3[C@@H](Nc3ccc5c(c3)OCCO5)C3COC(=O)[C@H]23)OCO4)cc(OC)c1O (some centres not stated) | 1.87 | > 100 | 3.51 | > 34.2 | > 100 |  |  |  | > 100 | 1.26 | 1.25 | 9.19 |
